Reference: patent publication US20030134865A1, “Modulation of histone deacetylase” (priority 2003, published 2003)
In brackets after ≈: the same amount, converted by molar mass. Several values for one entry are separate records, joined by “and”; a condition that tells them apart may be missing. Identical values can stand only once.

Columns and labels:
[1] = test system: GM-CSF release, A549 cells; assay: GM-CSF release from A549 cells (ELISA)
Method: GM-CSF ELISA: Determination of GM-CSF expression was measured by sandwich ELISA (Pharmingen, Lugano, Switzerland) according to the manufacturer's instructions.

HDAC activity = assay: Direct effect on HDAC activity of nuclear proteins from untreated A549 cells; format: biochemical; conditions: for direct effect on HDAC activity: nuclear extracts, IBMX 500 μM, rolipram 10 μM, CGS-15943 10 μM; for effect on theophylline-induced increased HDAC activity: inhibitor 1 μM
Method: FIG. 13. […] (a) Direct effect of the PDE4 inhibitor rolipram (10 μM) and the adenosine receptor antagonist CGS-15943 (10 μM) on HDAC activity. […] (b) Direct effect of the MEK inhibitor PD089159 (1 μM) and the p38 MAPK inhibitor SB203580 on theophylline induced HDAC activity.

HAT activity = assay: Direct effect on HAT activity; format: biochemical; conditions: IBMX 500 μM, rolipram 10 μM, CGS-15943 10 μM
[2] = test system: SLPI production, A549 cells; assay: SLPI production by A549 cells (ELISA); format: cell-based
Method: A549 cells were grown to 50% confluence in Dulbecco's modified medium (DMEM) containing 10% fetal calf serum (FCS) before incubation for 48-72 hr in serura-free media.
Determination of GM-CSF expression was measured by sandwich ELISA (Pharmingen, Lugano, Switzerland) according to the manufacturer's instructions. For immunoassay of SLPI and acetylated histone, polystyrene microtitre plates were coated overnight at 4° C. with sample diluted with hydroxy carbonate (pH 9.6). Plates were blocked for 2 hr with 5 % ovalbumin in PBS. Antibodies against SLPI (R&D Systems Europe, Abingdon, UK), K5, K8, K12 and K16 acetylated histone 4 (Serotec, Oxford, UK) were diluted 1:300-1:1000 and added to each plate. After 1 hr at room temperature plates were washed sequentially with 0.1% Tween20-PBS and incubated with HRP conjugated goat anti-rabbit antibody (DAKO, Cambridge, UK) for 1 hr. Detection was performed with ABTS following Pharmingen instructions. Recombinant human SLPI (R&D Systems Europe) was used as a standard. As a standard for acetylated histone, crude extracted histone from A549 cells incubated with TSA (100 ng/ml) for 6 hr was used, and the value was calculated in units, where 1 unit is equivalent to the absorbance of 50 ng of TSA-treated hyperacetylated histone after subtraction of BSA-induced histone acetylation.

[3] = test system: histone acetylation, A549 cells; assay: Histone acetylation, [3H]-acetate incorporation in whole A549 cells; format: cell-based
Text: Histones were isolated and separated by SDS-PAGE and [^3H]-acetate incorporated histones were counted and normalised to protein level. […] Data represents mean±SEM of 3 independent experiments. **p<0.01.

[4] = test system: histone deacetylase (HDAC) activity, A549 cells; assay: Histone deacetylation activity in total cellular extracts of treated A549 cells
Method: (B) Effect of Trichostatin A (TSA) on histone deacetylase activity and histone H4 acetylation. Cells were treated with increasing concentrations of TSA for 6 hrs before total cellular proteins were isolated and analysed for deacetylase activity and also histone acetylation by Western blotting using an anti-pan acetylated histone H4 antibody.
Effect of theophylline on histone deacetylase (HDAC) activity in A549 cells. (a) Cells were stimulated with LPS (3 ng/ml) for 24 hours in the presence or absence of theophylline (10^−5 M) or Dex (10^−6 M). Total cellular proteins were extracted and histone deacetylase activity measured. (b) Direct effect of theophylline on HDAC activity. […] Results are expressed as mean±SEM (n=3-5, *p<0.05, **p<0.01).

[5] = test system: histone H4 lysines K5, K8, K12, K16; assay: Immunocytochemical staining for acetylated histone H4 lysine residues; format: cell-based; conditions: 6 hr
Method: Immunocytochemical staining for specific histone H4 acetylated lysine residues. […] Results are representative of 4 independent experiments.
Cells were washed with Hanks solution, and air-dried for 30 min at RT. Cells were then fixed in ice-cold acetone-methanol (50/50, w/w) (−20° C.) for 10 min. Slides were air dried and incubated with blocking buffer (20% normal swine serum in PBS, 0.1% saponin)(Dako) for 20 mmn followed by 1 hr incubation with primary antibody solution (PBS, 0.1% saponin, 1% BSA). Antibodies against pan-acetylated H4, H4-K5, H4-K8, H4-K12 and H4-K16 (Serotec) were used at 1:100 to 1:300 dilution. Slides were washed twice and incubated with biotinylated swine anti-rabbit IgG (Dako)(1:200) for 45 min. Slides were washed again before incubation with fluorescein isothiocyante-conjugated streptavidine (1:100) for 45 min. The slides were washed twice more before counterstaining with 20% haematoxyline, and mounting. Stained cells were observed by confocal microscopy. Confocal scanning laser microscopy images were collected with a Leica confocal microscope, equipped with a 488/514 nm dual band argon ion laser. An oil-immersion objective was used and images were collected using TCSNT software.

[6] = test system: p65-associated histone acetylation; assay: p65-immunoprecipitated histone acetylation (IP-HAT assay); format: cell-based
Method: Total cellular proteins were isolated and p65 associated proteins immunoprecipitated under stringent conditions (see methods). The associated histone acetylation activity was measured following incubation of the p65-IP extract with 10 μg free core histones and 0.25 mCi of ^3H-acetyl CoA for 45 minutes.
Histone acetylation experiments were performed as in (A) in the presence of TSA (100 ng/ml).
Extracts were prepared using 100 μl of stringent immunoprecipitation (IP) buffer (50 mM Tris-HCl, pH 8.0, 150 mM NaCl, 1.0% triton X-100, 0.5% NP-40, 0.1% SDS, 0.5% deoxycholate, complete protease inhibitor cocktail (Boehringer-Mannheim)) or mild IP buffer (10 mM Tris-HCl, pH 8.0, 150 mM NaCl, 0.5% NP-40, complete protease inhibitor cocktail (Boehringer-Mannheim)). […] After microcentrifugation, 20 μl of A/G agarose conjugated with 5 μg of antibody were used to precipitate CBP, PCAF, GR or p65 overnight at 4° C. with rotation.
Immune complexes with resin were resuspended in 150 μl of HAT buffer (50 mM Tris-HCl, pH 8.0, 10% glycerol, 1 mM dithiothreitol, 0.1 mM EDTA, complete protease inhibitor cocktail). Typically, 20 μl of free core histone solution extracted from A549 cells (final amount 10 μg) and 30 μl of immunoprecipitate were incubated. Reactions were initiated by the addition of 0.25 mCi of [^3H] acetyl-CoA (5 Ci/mmol)(Amersham) and performed for 45 min at 30° C.

[7] = test system: CBP-associated HAT activity; assay: CBP-immunoprecipitated histone acetylation (IP-HAT assay); format: cell-based
Method: […]. Cells were treated as in (A) and CBP immunoprecipitated under stringent conditions (see methods). Histone acetylation was measured as in (A) and results presented as mean±sem of at least 3 independent experiments, *p<0.05.
[…]. Cells were treated as in (A) and CBP immunoprecipitated under mild conditions (see methods). Histone acetylation was measured as in (A). […] Results presented as mean±sem of at least 3 independent experiments, *p<0.05.
Extracts were prepared using 100 μl of stringent immunoprecipitation (IP) buffer (50 mM Tris-HCl, pH 8.0, 150 mM NaCl, 1.0% triton X-100, 0.5% NP-40, 0.1% SDS, 0.5% deoxycholate, complete protease inhibitor cocktail (Boehringer-Mannheim)) or mild IP buffer (10 mM Tris-HCl, pH 8.0, 150 mM NaCl, 0.5% NP-40, complete protease inhibitor cocktail (Boehringer-Mannheim)). The lysis mixture was incubated on ice for 15 min and microfuged for 10 min at 4° C. Extracts were precleared with 20 μl of A/G agarose (a 50:50 mix; Santa Cruz, Santa Cruz, Calif.) and 2 μg of normal IgG. After microcentrifugation, 20 μl of A/G agarose conjugated with 5 μg of antibody were used to precipitate CBP, PCAF, GR or p65 overnight at 4° C. with rotation. […]
IP-HAT assays were performed using a modified method of Ogryzko (Ogryzko, V. V et al (1996) Cell 87:953-959). […] The dried filters were counted in a liquid scintillation counter.

CBP, PCAF = assay: CBP and PCAF expression in A549 cells (Western blot); format: cell-based; conditions: 10^−8 and 10^−6M, 6 hrs
Text: Proteins were extracted and size fractionated by SDS-PAGE and CBP and PCAF detected by Western blotting. Results are representative of 3 independent experiments. […] Immunoreactive bands were detected by ECL.

[8] = test system: HDAC activity, BAL macrophages; assay: HDAC activity in BAL macrophages; format: cell-based, human; conditions: 24 hours, rolipram 10 μM
[9] = test system: HAT activity, BAL macrophages; assay: HAT activity in BAL macrophages; conditions: rolipram 10 μM
Method: HAT activity (a) and HDAC activity (b) were measured as described in the methods. Results are expressed as mean±SEM (n=5).
Fibreoptic bronchoscopy and isolation of BAL macrophages: Subjects attended our bronchoscopy suite at 8.30 am after having fasted from midnight and were pretreated with atropine (0.6 mg iv) and midazolam (5-10 mg iv). Oxygen (31/min) was administered via nasal prongs throughout the procedure and oxygen saturation was monitored with a digital oximeter. Using local anaesthesia with lidocaine (4%) to the upper airways and larynx, a fibreoptic bronchoscope (Olympus BF10) was passed through the nasal passages into the trachea. Bronchoalveolar lavage (BAL) was performed from the right middle lobe using warmed 0.9% NaCl with 4 successive aliquots of 60 mls of 0.9% NaCl. […] Cytospins were prepared and stained with May-Grunwald stain for differential cell counts. Cell viability was assessed using trypan blue exclusion.
After incubation for 10 min at 37° C. cells were stimulated for 6 hr. […] Gels were stained with Coommasie brilliant blue and the core histones (H2A, H2B, H3 and H4) excised. The radioactivity in extracted core histones was determined by liquid scintillation counting and normalised to protein level.

OO [H2O2]
GM-CSF release, IL-1β plus H2O2 ([1]; A549 cells): 2054 ± 342 pg/mL

CC(C)Cn1c(=O)n(C)c(=O)c2[nH]cnc21 [IBMX]
direct effect on HDAC activity (HDAC activity): no direct effect
direct effect on HAT activity (HAT activity): no direct effect

COc1cccc(-c2cc(=O)c3ccccc3o2)c1N [PD089059]
effect on theophylline-induced increased HDAC activity (HDAC activity): failed to have any effect

C[S+]([O-])c1ccc(-c2nc(-c3ccncc3)c(-c3ccc(F)cc3)[nH]2)cc1 (centres unmarked) [SB203580]
effect on theophylline-induced increased HDAC activity (HDAC activity): significantly inhibited

CC(/C=C/C(=O)NO)=C\[C@@H](C)C(=O)c1ccc(N(C)C)cc1 [TSA, trichostatin A]
SLPI production ([2]; IL-1β 1 ng/ml after pretreatment with TSA 1 ng/ml, versus 6.0±0.5): 8.2 ± 0.3 ng/mL
basal histone acetylation with TSA ([3]; TSA 1 ng/ml): 162±21 dpm/μg protein
dexamethasone-induced histone acetylation with TSA ([3]; TSA 1 ng/ml, versus 71±9): 984±50 dpm/μg protein
IL-1β-stimulated histone acetylation with TSA ([3]; TSA 1 ng/ml, versus 137±15): 1543±143 dpm/μg protein
IL-1β plus dexamethasone (10^−10 M)-stimulated histone acetylation with TSA ([3]; TSA 100 ng/ml, versus 37±5): 435±28 dpm/μg protein
IL-1β-stimulated histone acetylation with TSA ([3]; TSA 100 ng/ml, versus 71±9): 1543±143 dpm/μg protein
IL-1β-induced GM-CSF release ([1]; IL-1β 1 ng/ml plus TSA 1 ng/ml, versus 157±6 without TSA): 233 ± 12 ng/mL
effect of TSA on dexamethasone (10^−6 M) suppression of GM-CSF release ([1]; IL-1β plus H2O2): unable to block
effect of TSA on suppression of GM-CSF release by combined treatment ([1]; IL-1β plus H2O2): blocked
effect of TSA pre-treatment on repression of GM-CSF release by combined treatment ([1]; IL-1β-stimulated): blocked
GM-CSF release in the presence of TSA ([1]; IL-1β-stimulated, with or without dexamethasone 10^−6 M): 969 ± 84 pg/mL
IC50, decrease in HDAC activity ([4]; A549 cells, 6 hrs): 1.1 ng/mL (≈ 3.64 nM)
HDAC activity in A549 cells ([4]; TSA, increasing concentrations, 6 hrs, decrease from 112±21): 11±3 dpm/ng protein

C[C@@H]1C[C@H]2[C@@H]3CCC4=CC(=O)C=C[C@]4(C)[C@@]3(F)[C@@H](O)C[C@]2(C)[C@@]1(O)C(=O)CO [dexamethasone]
EC50 ([2]; Homo sapiens, A549, read-out: EC50, induction of SLPI): 9 nM
concentration of maximum SLPI induction ([2]; dexamethasone alone): 1 µM
concentration giving maximum induction of histone acetylation ([3]; between 4-8 hr): ≥ 10^−8 M
basal histone acetylation ([3]; dexamethasone 10^−10 M alone, no effect): 23.7±4.1 dpm/μg protein
IL-1β plus dexamethasone-stimulated histone acetylation ([3]; dexamethasone 10^−10 M, no TSA): 37±5 dpm/μg protein
dexamethasone-induced histone acetylation ([3]; without TSA): 71±9 dpm/μg protein
acetylated histone H4 K5 [5]: 53±9 % positive nuclei
acetylated histone H4 K16 [5]: 36±16 % positive nuclei
IC50, p65-associated IL-1β-induced histone acetylation [6]: 400 pM
IC50, p65-associated histone acetylation in the presence of TSA ([6]; TSA 100 ng/ml): 90 nM
IC50 ([7]; CBP immunoprecipitated under stringent IP conditions, read-out: IC50, IL-1β-stimulated CBP-dependent histone acetylation): 8 nM
IC50, IL-1β-induced CBP-associated histone acetylation ([7]; CBP isolated under mild IP conditions): 40 pM
CBP or PCAF expression (CBP, PCAF): no effect
total cell HDAC activity after IL-1β plus H2O2 ([4]; 4 hrs, theophylline pre-treatment 10^−5 M, 10 min): no effect

COc1ccc(C2CNC(=O)C2)cc1OC1CCCC1 (centres unmarked) [rolipram]
direct effect on HDAC activity (HDAC activity): no direct effect
direct effect on HAT activity (HAT activity): no direct effect
HDAC activity [8]: no effect
HAT activity [9]: no effect

IL-1β: interleukin used to stimulate A549 cells (1 ng/ml)
SLPI production ([2]; IL-1β 1 ng/ml, versus 1.2±0.3 control): 6.0 ± 0.5 ng/mL
histone acetylation, IL-1β alone ([3]; IL-1β 1 ng/ml, whole cell incorporation): 137±15 dpm/μg protein and 71±9 dpm/μg protein
histone acetylation 30 min after IL-1β-stimulation ([3]; versus 18±4): 41±6 dpm/μg protein
increase in histone acetylation ([3]; whole cell): 4-5 fold and 4 fold
acetylated histone H4 K8 [5]: 42±15 % positive nuclei
acetylated histone H4 K12 [5]: 37±4 % positive nuclei
increase of p65-immunoprecipitated histone acetylation ([6]; IL-1β stimulation): 9-10 fold
IL-1β-stimulated GM-CSF release ([1]; A549 cells): 714 ± 94 pg/mL
increase in GM-CSF release ([1]; IL-1β 1 ng/ml): 30 fold
GM-CSF within the culture supernatant ([1]; IL-1β 1 ng/ml, 6 hr, untreated cells 30±10): 157 ± 6 ng/mL

lipopolysaccharide [LPS]
reduction of total cell HDAC activity ([4]; LPS, 6 hrs): 30%
